Reference: ChEMBL document CHEMBL4837249, “Discovery of Potent Antiallergic Agents Based on an o-Aminopyridinyl Alkynyl Scaffold” (J Med Chem, 2021)

Experiments:
RBL-2H3 = experiment: Antiallergic activity against anti-DNP-IgE sensitized rat RBL-2H3 cells assessed as […] of degranulation by measuring beta-hexosaminidase release using P-nitrophenyl-N-acetyl-D-glucosamide as substrate measured after 1 hr by microplate reader; assay type: functional, cell-based; conditions: RBL-2H3, 1 h
[1] = molecular target: Tyrosine-protein kinase Blk (Homo sapiens, UniProt P51451); experiment: Inhibition of human full length recombinant BLK at 5 nM by radiometric scintillation counting analysis relative to control
[2] = molecular target: Protein-tyrosine kinase 6 (Homo sapiens) (UniProt Q13882); experiment: Inhibition of human recombinant BRK (174 to 734) at 5 nM by radiometric scintillation counting analysis relative to control
[3] = molecular target: T1, Tyrosine-protein kinase ZAP-70 (Homo sapiens) (UniProt P43403); experiment: Inhibition of human full length recombinant ZAP70 at 5 nM by radiometric scintillation counting analysis relative to control
T1 sequence (whole entry): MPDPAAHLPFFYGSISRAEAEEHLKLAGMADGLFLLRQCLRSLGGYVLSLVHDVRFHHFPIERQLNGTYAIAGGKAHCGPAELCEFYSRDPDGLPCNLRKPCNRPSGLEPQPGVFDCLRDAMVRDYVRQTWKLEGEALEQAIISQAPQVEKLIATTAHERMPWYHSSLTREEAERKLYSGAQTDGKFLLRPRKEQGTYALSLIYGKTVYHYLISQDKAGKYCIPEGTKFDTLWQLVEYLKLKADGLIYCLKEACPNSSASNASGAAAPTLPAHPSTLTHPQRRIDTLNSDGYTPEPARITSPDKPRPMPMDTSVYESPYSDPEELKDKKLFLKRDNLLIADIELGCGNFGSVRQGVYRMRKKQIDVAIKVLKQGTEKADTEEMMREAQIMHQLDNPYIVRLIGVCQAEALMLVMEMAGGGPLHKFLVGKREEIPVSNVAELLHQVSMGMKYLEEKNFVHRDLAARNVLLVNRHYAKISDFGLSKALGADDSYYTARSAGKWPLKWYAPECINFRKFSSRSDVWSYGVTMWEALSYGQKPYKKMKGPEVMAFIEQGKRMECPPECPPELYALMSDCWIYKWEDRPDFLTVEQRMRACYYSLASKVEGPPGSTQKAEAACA

[4] = molecular target: T2, Tyrosine-protein kinase ABL1 (Homo sapiens, UniProt P00519); experiment: Inhibition of human recombinant ABL1 using ATP/Ulight-TK peptide at 50 nM incubated for 15 mins relative to control
[5] = molecular target: Mast/stem cell growth factor receptor Kit (Homo sapiens) (UniProt P10721); experiment: Inhibition of human recombinant c-Kit at 50 nM by radiometric scintillation counting analysis relative to control
[6] = molecular target: Macrophage colony-stimulating factor 1 receptor (Homo sapiens, UniProt P07333); experiment: Inhibition of human recombinant CSF1R using ATP/Ulight-TK peptide at 50 nM incubated for 15 mins relative to control
[7] = molecular target: T3, Tyrosine-protein kinase HCK (Homo sapiens, UniProt P08631); experiment: Inhibition of human recombinant HCK (230 to 497) at 50 nM by radiometric scintillation counting analysis relative to control
[8] = molecular target: Tyrosine-protein kinase Lck (Homo sapiens, UniProt P06239); experiment: Inhibition of human full length recombinant LCK at 50 nM by radiometric scintillation counting analysis relative to control
[9] = molecular target: Tyrosine-protein kinase Lyn (Homo sapiens, UniProt P07948); experiment: Inhibition of human full length recombinant LYN at 50 nM by radiometric scintillation counting analysis relative to control
[10] = molecular target: Platelet-derived growth factor receptor beta (Homo sapiens) (UniProt P09619); experiment: Inhibition of human recombinant PDGFRbeta (557 to end) at 50 nM by radiometric scintillation counting analysis relative to control
[11] = molecular target: T1, Tyrosine-protein kinase ZAP-70 (Homo sapiens); experiment: Inhibition of human full length recombinant ZAP70 at 50 nM by radiometric scintillation counting analysis relative to control
[12] = molecular target: T2, Tyrosine-protein kinase ABL1; experiment: Inhibition of human recombinant ABL1 using ATP/Ulight-TK peptide at 500 nM incubated for 15 mins relative to control
[13] = molecular target: Tyrosine-protein kinase BTK (Homo sapiens) (UniProt Q06187); experiment: Inhibition of human full length recombinant BTK at 500 nM by radiometric scintillation counting analysis relative to control
[14] = molecular target: Mast/stem cell growth factor receptor Kit (Homo sapiens) (UniProt P10721); experiment: Inhibition of human recombinant c-Kit at 500 nM by radiometric scintillation counting analysis relative to control
[15] = molecular target: Tyrosine-protein kinase Fgr (Homo sapiens, UniProt P09769); experiment: Inhibition of human recombinant FGR (456 to 770) at 500 nM by radiometric scintillation counting analysis relative to control
[16] = molecular target: T3, Tyrosine-protein kinase HCK; experiment: Inhibition of human recombinant HCK (230 to 497) at 500 nM by radiometric scintillation counting analysis relative to control
[17] = molecular target: T4, Tyrosine-protein kinase ITK/TSK (Homo sapiens) (UniProt Q08881); experiment: Inhibition of human recombinant ITK (352 to 617) at 500 nM by radiometric scintillation counting analysis relative to control
T4 sequence (whole entry): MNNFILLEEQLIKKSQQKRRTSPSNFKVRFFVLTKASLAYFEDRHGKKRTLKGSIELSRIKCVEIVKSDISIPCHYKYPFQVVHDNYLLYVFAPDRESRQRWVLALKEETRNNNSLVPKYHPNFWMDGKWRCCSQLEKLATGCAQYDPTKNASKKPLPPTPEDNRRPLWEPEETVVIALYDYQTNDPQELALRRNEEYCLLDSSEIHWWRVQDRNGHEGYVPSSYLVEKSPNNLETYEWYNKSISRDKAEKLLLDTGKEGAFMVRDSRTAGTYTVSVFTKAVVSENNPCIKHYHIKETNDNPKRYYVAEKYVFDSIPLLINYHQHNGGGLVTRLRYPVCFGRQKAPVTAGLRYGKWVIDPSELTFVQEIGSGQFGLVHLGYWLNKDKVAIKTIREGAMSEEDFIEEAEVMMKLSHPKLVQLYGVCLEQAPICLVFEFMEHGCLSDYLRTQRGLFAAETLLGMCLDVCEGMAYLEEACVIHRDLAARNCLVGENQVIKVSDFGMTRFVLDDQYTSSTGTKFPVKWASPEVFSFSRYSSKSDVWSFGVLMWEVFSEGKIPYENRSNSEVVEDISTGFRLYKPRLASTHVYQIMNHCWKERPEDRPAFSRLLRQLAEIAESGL

[18] = molecular target: Proto-oncogene tyrosine-protein kinase Src (Homo sapiens, UniProt P12931); experiment: Inhibition of human recombinant Src (1-530) at 500 nM by radiometric scintillation counting analysis relative to control
[19] = molecular target: Tyrosine-protein kinase SYK (Homo sapiens) (UniProt P43405); experiment: Inhibition of human full length recombinant Syk at 500 nM by radiometric scintillation counting analysis relative to control
[20] = molecular target: T1, Tyrosine-protein kinase ZAP-70 (Homo sapiens); experiment: Inhibition of human full length recombinant ZAP70 at 500 nM by radiometric scintillation counting analysis relative to control
[21] = molecular target: Tyrosine-protein kinase JAK1 (Homo sapiens) (UniProt P23458); experiment: Inhibition of human recombinant JAK1 at 50 nM radiometric scintillation counting analysis relative to control
Chain of Tyrosine-protein kinase JAK1 (Homo sapiens) (P23458 whole entry): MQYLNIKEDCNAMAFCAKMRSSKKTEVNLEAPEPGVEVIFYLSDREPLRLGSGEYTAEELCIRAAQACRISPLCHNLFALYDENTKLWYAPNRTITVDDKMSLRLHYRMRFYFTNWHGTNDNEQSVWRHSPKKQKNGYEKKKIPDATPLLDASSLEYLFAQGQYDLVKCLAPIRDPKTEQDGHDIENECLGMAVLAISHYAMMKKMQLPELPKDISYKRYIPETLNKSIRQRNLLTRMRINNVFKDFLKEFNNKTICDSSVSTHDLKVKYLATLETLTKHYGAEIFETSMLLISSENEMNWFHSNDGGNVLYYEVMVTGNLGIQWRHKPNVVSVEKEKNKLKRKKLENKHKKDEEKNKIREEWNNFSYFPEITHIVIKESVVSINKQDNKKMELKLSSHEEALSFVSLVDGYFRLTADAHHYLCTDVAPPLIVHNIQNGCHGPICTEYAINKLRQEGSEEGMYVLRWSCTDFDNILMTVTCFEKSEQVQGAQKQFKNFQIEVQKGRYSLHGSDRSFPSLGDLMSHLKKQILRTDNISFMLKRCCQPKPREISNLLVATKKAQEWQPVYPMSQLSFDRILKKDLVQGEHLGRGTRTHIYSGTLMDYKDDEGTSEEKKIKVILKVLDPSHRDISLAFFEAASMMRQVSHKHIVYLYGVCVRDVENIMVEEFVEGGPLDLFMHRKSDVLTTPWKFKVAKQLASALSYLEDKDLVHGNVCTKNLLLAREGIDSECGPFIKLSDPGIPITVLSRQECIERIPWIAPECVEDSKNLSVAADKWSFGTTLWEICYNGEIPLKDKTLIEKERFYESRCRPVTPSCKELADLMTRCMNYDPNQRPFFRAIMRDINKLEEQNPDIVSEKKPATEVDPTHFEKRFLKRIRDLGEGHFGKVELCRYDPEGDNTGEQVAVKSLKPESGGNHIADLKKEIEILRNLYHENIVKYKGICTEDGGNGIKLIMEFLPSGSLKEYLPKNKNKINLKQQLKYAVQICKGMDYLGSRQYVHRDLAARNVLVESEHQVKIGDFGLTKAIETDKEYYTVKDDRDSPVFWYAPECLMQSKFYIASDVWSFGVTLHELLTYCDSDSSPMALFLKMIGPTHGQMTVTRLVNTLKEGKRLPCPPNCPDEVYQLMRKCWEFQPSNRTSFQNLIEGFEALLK

Chain of Tyrosine-protein kinase Lyn (P07948 2-512 limits assumed): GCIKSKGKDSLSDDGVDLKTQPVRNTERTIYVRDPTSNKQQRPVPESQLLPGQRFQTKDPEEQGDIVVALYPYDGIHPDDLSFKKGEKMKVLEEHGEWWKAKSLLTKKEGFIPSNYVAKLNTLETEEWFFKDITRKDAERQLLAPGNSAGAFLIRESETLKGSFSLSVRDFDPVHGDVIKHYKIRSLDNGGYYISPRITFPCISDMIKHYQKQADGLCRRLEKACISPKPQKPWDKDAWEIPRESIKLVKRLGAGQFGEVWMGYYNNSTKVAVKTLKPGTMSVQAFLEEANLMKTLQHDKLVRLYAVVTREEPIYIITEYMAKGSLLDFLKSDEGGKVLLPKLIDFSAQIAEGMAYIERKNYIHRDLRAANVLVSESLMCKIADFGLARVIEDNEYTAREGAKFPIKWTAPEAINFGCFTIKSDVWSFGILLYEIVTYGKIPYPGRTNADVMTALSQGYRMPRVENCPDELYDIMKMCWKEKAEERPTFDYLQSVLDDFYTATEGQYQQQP
Chain of Tyrosine-protein kinase BTK (Homo sapiens) (Q06187 whole entry): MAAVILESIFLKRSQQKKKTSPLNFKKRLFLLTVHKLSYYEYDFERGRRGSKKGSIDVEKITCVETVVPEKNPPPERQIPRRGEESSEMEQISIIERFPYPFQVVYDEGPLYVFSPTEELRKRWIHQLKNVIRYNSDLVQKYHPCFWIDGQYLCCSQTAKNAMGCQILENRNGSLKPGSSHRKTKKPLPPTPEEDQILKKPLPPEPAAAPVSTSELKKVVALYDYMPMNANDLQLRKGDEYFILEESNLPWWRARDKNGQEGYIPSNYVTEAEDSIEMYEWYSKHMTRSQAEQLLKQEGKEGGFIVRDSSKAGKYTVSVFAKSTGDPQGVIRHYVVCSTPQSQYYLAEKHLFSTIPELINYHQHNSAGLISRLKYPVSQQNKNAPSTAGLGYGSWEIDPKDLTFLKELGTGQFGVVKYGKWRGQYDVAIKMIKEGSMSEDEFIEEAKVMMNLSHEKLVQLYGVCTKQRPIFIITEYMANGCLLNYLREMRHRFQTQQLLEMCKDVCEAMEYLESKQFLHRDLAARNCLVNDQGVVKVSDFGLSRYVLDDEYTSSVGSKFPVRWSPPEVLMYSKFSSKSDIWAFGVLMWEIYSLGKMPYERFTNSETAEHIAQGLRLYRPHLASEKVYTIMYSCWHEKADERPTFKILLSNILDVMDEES
Chain of Macrophage colony-stimulating factor 1 receptor (P07333 whole entry): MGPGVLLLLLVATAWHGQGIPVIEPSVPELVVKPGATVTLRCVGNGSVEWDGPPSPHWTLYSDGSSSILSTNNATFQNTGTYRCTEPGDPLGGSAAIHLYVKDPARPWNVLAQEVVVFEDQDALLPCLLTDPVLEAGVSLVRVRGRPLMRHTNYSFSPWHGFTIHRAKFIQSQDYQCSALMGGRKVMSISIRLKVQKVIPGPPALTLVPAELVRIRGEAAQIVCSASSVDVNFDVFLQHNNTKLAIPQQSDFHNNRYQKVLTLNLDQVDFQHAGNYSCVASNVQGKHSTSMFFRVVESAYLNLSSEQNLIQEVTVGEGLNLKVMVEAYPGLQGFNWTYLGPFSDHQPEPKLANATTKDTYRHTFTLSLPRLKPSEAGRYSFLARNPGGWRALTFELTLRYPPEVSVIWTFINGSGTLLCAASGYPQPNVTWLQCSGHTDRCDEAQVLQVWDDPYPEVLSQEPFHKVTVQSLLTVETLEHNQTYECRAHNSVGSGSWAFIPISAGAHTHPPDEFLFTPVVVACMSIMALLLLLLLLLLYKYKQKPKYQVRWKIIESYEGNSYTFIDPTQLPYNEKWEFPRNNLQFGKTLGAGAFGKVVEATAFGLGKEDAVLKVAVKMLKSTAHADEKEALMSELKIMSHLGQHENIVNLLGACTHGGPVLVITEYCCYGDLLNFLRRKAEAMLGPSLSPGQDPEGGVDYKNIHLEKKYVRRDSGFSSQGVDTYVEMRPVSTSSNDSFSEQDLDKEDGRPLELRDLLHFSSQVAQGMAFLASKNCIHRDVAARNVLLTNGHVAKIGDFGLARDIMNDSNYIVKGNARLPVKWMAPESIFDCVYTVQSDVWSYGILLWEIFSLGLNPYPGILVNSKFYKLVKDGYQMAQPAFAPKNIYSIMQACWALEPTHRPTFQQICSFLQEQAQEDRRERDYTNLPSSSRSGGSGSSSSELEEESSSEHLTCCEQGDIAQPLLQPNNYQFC
Chain of Tyrosine-protein kinase Fgr (P09769 2-529 limits assumed): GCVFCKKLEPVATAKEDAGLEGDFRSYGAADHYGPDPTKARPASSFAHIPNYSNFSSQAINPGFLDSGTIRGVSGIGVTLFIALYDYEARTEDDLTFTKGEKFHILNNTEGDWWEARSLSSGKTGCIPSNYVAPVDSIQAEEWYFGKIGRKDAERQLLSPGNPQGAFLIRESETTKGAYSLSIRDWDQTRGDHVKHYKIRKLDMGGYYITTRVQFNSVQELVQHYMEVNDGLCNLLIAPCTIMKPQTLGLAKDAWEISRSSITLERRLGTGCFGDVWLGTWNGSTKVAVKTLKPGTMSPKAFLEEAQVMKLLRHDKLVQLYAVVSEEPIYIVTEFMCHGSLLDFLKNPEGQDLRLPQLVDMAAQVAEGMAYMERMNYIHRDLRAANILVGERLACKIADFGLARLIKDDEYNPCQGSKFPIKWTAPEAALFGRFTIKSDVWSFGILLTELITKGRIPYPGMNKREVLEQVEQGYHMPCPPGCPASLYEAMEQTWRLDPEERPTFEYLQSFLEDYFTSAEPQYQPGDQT
Chain of Mast/stem cell growth factor receptor Kit (Homo sapiens) (P10721 whole entry): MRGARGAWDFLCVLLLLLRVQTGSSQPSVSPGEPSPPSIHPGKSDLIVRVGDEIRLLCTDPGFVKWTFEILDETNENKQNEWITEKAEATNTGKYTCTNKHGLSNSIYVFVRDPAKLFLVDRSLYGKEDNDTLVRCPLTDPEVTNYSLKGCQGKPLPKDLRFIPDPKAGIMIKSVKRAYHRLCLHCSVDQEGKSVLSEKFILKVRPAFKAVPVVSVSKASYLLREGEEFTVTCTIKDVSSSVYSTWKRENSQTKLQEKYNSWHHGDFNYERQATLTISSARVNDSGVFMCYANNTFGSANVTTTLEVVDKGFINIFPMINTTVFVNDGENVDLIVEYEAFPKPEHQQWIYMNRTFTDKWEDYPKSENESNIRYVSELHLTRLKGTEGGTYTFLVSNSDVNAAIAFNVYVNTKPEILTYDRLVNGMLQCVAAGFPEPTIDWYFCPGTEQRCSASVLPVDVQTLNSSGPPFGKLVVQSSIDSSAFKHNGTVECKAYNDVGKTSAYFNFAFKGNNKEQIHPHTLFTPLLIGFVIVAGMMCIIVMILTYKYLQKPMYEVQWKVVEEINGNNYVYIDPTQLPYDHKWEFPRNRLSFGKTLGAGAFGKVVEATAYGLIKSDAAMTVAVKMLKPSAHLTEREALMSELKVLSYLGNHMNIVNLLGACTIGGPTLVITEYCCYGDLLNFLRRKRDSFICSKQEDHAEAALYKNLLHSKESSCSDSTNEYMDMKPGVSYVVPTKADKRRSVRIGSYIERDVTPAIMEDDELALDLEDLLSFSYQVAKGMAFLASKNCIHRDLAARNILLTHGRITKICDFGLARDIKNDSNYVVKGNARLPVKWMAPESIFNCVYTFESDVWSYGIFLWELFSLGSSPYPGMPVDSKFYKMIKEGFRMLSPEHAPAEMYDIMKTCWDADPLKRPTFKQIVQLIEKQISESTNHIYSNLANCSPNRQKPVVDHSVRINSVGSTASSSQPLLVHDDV

| inhibition [1] | inhibition [2] | inhibition [3] | inhibition [4] | inhibition [5] | inhibition [6] | inhibition [7] | inhibition [8] | inhibition [9] | inhibition [10] | inhibition [11] | inhibition [12] | inhibition [13] | inhibition [14] | inhibition [15] | inhibition [16] | inhibition [17] | inhibition [18] | inhibition [19] | SMILES | IC50 (RBL-2H3) | further results |
| --- | --- | --- | --- | --- | --- | --- | --- | --- | --- | --- | --- | --- | --- | --- | --- | --- | --- | --- | --- | --- | --- |
| 21% | 17% | -7% | 96% | 15% | 69% | 92% | 98% | 99% | 13% | 6% | 102% | -2% | 65% | 77% | 93% | -4% | 96% | 9% | Cc1ccc(C(=O)Nc2ccc(OC(F)(F)F)cc2)cc1C#Cc1cc(-c2cnn(C)c2)cnc1N | 3.71 nM | inhibition [20]: -4%; inhibition [21]: 8% |
| 7% | 9% | 20% | 64% | 21% | 94% | 64% | 59% | 93% | 54% | 2% | 89% | 11% | 56% | 46% | 89% | 19% | 79% | 8% | Cc1ccc(C(=O)Nc2ccc(Cl)cc2Cl)cc1C#Cc1cc(-c2cnn(C)c2)cnc1N | > 1000 nM | inhibition [20]: 20%; inhibition [21]: -6% |

| SMILES | inhibition [1] | inhibition [2] | inhibition [3] | inhibition [4] | inhibition [5] | inhibition [6] | inhibition [7] | inhibition [8] | inhibition [9] | inhibition [10] | inhibition [11] | inhibition [12] | inhibition [13] | inhibition [14] | inhibition [15] | inhibition [16] | inhibition [17] | inhibition [18] | inhibition [19] | IC50 (RBL-2H3) | further results |
| --- | --- | --- | --- | --- | --- | --- | --- | --- | --- | --- | --- | --- | --- | --- | --- | --- | --- | --- | --- | --- | --- |
| Cc1ccc(C(=O)Nc2cc(C(F)(F)F)cc(C(F)(F)F)c2)cc1C#Cc1cc(-c2cnn(C)c2)cnc1N | 22% | -2% | 9% | 88% | -10% | 83% | 92% | 60% | 105% | 6% | 12% | 104% | 49% | 17% | 101% | 97% | 2% | 92% | 2% | 9.32 nM | inhibition [20]: -1%; inhibition [21]: 37% |
